This is an account of results in US20240197761A1, “FUCOSYLATION AND IMMUNE MODULATION IN CANCER” (H. LEE MOFFITT CANCER CENTER AND RESEARCH INSTITUTE, INC., priority 2021, published 2024).

For assay [1], the system named is SW1 tumors. As to the kind of experiment: Immunodepletion mouse model (CD4+ or CD8+ T cell depletion), SW1. It counts as in vivo, C3H/HeN mice. The text has this: Total TILs were gated first to single cells (based on forward scatter height vs width, followed by side scatter height vs. width). Live cells were gated from the Zombie negative population from the population above. TILs were gated based on splenocyte size from a control spleen. Individual immune subpopulations were sub-gated from the total TIL population using the following staining criteria: CD3+ for CD3+ T cells; CD3+/CD4+/CD8− for CD4+T cells; CD3+/CD4−/CD8+ for CD8+ T cells, CD11c+/CD11b+ for DCs; either NK1.1 (for C57/BL6 mice) or DX5 (for C3H/HeJ) for NK cells; CD11b+/GR1+ for MDSC-like cells; and F4/80+ for macrophages. Single-cell suspensions from tumor and spleen tissue were stained with Live/Dead Zombie NIR (Biolegend, (San Diego, CA)) at 1:1,000 in PBS for 20 min. Cell suspensions were spun down and stained with the following with antibodies at 0.5 μg/ml per antibody: APC anti-mouse CD3, Pacific Blue anti-mouse CD4, BV785 anti-mouse CD8, PerCP anti-mouse CD25, FITC anti-mouse F4/80, PeCy7 anti-mouse CD11c, PE anti-mouse NK1.1 or PE anti-mouse DX5, and PerCP-Cy5.5 anti-mouse CD11 b. After staining, the cells were washed and fixed (2% formaldehyde), followed by another wash and flow cytometric analysis. The compensation controls were prepared using 0.5 μg/mL of each antibody with UltraComp eBeads, (ThermoFisher Scientific (Waltham, MA)). All samples were subject to flow cytometric profiling using a LSR Flow Cytometer (BD Biosciences (San Jose, CA)) and analysis as indicated using FlowJo software (BD Biosciences (San Jose, CA)).
All animals were housed at the Vincent A. Stabile Research building animal facility at H. Lee Moffitt Cancer Center & Research Institute, which is fully accredited by the Association for Assessment and Accreditation of Laboratory Animal Care International (AAALAC, #434), and are managed in accordance with the Guide for the Care and Use of Laboratory Animals (“The Guide”), the Animal Welfare Regulations Title 9 Code of Federal Regulations Subchapter A, “Animal Welfare”, Parts 1-3 (AWR), the Public Health Service Policy on Humane Care and Use of Laboratory Animals (PHS Policy), and by the USF Institutional Animal Care and Use Committee's Principles and Procedures of Animal Care and Use (IACUC Principles). The experiments and protocols detailed in this study received institutional approval by the Moffitt IACUC (RIS00001625). Four-to-six-week-old female C3H/HeN and male C57BL6 mice were purchased from Charles Rivers Laboratories for the indicated experiments. Four-to-six-week-old male NSG mice from the Lau laboratory breeding colony were used for the indicated experiments. […] Mouse tumor volumes were measured using length, width and depth divided by 2. […]

The subject of assay [2] is BM-derived MDSCs. Description: NO production of BM-derived MDSCs (Greiss assay). It counts as cell-based, Balb/C mice. Conditions: 250 uM L-fuc prior, during and/or after GM/G-CSF stimulation. As to the method: Tlhe myeloid cells, which were stimulated to imlmuno, suppressive MDSCs using GM/G-CSF, were divided into 3 treatment groups: (i) Treatment±250 uM L-fuc prior, duri ng, and after GM/G-CSF stimulation. Treatment±250 uM L-fuc during and after GM/G-CSF stimulation. (ii) Treatment±250 uM L-fuc only after GM/G-CSF stimulation. Greiss assay timepoints reier to hours after initial dose of L-fuc regardless of when cells were treated, L-fuc abrogated their ability to glenerate NO. […] We subsequently co-cultured the modulated MDSCs wilh T cells, which were then activated or not with CD3/CD28 beads and measured for IFNψ production. *. p •<0.05

Assay [3] has as its system dendritic cells. As to the kind of experiment: TLR profiles of bone marrow-derived dendritic cells (RT-qPCR). It counts as cell-based, Balb/C mice. Conditions: 250 uM L-fucose, 96 hours, then LPS 24 hours. As to the method: Bone marrow was harvested from either 4-week-old (young) or 6-month-old (old) Balb/C mice. Cells were isolated and cultured in DC maturation cocktail ([…], […], ±250 uM L-fucose) for 96 hours. At 96 hours the cells were treated with 10 ug/ml LPS for 24 hours after which the cells were harvested, and the RNA was extracted. RT-qPCR was performed. Data represents fold change of indicated genes normalized to values of young mice. N=3 mice per age group.
In general terms: Quantitative PCR measures a nucleic acid by following its amplification.

Take `C[C@H](O)[C@@H](O)[C@@H](O)[C@H](O)C=O` [L-fucose]: the “reduction of tumor growth” value in assay [1] (CD4+T cell depletion) is “completely abrogated”; in assay [1] (CD8+T cell-depleted mice), above 50%; in assay [1] (control (PBS-injected) mice), above 50%. Moreover, the “L-fuc-induced increases in total itICs (incl. NK, DC, CD8+T cells)” value in assay [1] (CD4+T cell-depletion) is given as “blocked”. For the same compound, the NO production result in assay [2] is “abrogated”. Moreover, the “TLR profiles of dendritic cells” value in assay [3] is given as “alters”.
